Assay results reported in US20060018940A1, “Stabilized antimicrobial composition” (E. I. DU PONT DE NEMOURS AND COMPANY, priority 2004, published 2006).
Values joined by “and” are separate entries in the source; they are usually repeats but may differ in a detail not shown here. Equal entries are not always repeated. “Also recorded” adds a separate entry of the source. Where two headings read alike, the source gives them in different places.

Columns and labels:
Assay type in all cases: cell-based
[1] = test system: Staphylococcus aureus ATCC 6538; assay: Bacterial efficacy, suspension test (modified AOAC 965.13), plate count on TSA
[2] = test system: Pseudomonas aeruginosa ATCC 15442; assay: as above
[3] = test system: Salmonella choleraesuis ATCC 10708
[4] = test system: Aspergillus fumigatus ATCC 1098; assay: Fungicidal activity (modified AOAC Method 955.17), surviving spores; settings: for reduction of the fungal bioburden (words): within 15 minutes of treatment, amounts equivalent to those in the tablet solution
Method: This assay had several modifications from the published AOAC Fungicidal Activity of Disinfectants Protocol, Method 955.17. Aspergillus fumigatus ATCC 1098 was grown on Malt Extract Agar (available from Becton Dickinson, Billerica, Mass.) plates, and spores were harvested. Spores were stored in filter-sterilized Millipore water at −20° C. The spore preparation used for this experiment is detailed below. A freezer stock of A. fumigatus was defrosted and diluted to obtain an inoculum suspension for this experiment. The inoculum preparation was estimated to be approximately 5×10^6 conidia/mL. The following test solutions were prepared using filter sterilized Millipore water in steam-sterilized 4L bottles:
Water Control: (filter-sterilized water only), pH 6.28.
OXONE Control: 3.78 grams OXONE in 1 gallon (3.8L) sterile water, buffered to pH 4.43 using 0.98 g sodium bicarbonate and +5.25 g 10% H2SO4).
Chlorite Control: 0.26 grams of sodium chlorite in 1 gallon sterile water buffered to pH 4.55 (1.8 g 10% H2SO4).
Buffer Control: sodium bicarbonate, pH adjusted to 4.4.
Chlorine Dioxide: anthium dioxide (stabilized sodium chlorite available from IDI, North Kingston, R.I.) was acidified with HCl.
CLOROX control: 4.17% CLOROX bleach available from Clorox Company, Oakland, Calif. (v/v) in Millipore water by mixing 4.17 mL of Clorox bleach and water up to 100 mL total volume.
Tablet test Solution (Example 21: 2 tablets of Example 6 were dissolved in one gallon (3.8 L) of deionized water. The total tablet weight was 5.13 grams. The pH of the resulting solution was 5.2.
Reaction tubes: 5 mL of each test solution was aliquoted into 25×150 mm test culture tubes, capped and labeled according to Table 10. 9 mL of D/E (Dey/Engley) Neutralizing Broth (available from Becton Dickinson, Billerica, Mass.) was added to each of 28 test tubes and the tubes were capped. Butterfield buffer blanks were arranged for dilution of neutralized samples, and Malt Extract Agar plates were numbered for spore enumerations of the diluted, neutralized samples. With a graduated pipette, 0.5 mL of spore inoculum (approx. 10^6 condia/mL) was added to the first tube of test solution and gently shaken. After 5 and 15 minute exposures to the respective test solutions, samples were gently shaken and 1 mL samples were removed from each reaction mixture (spore-test solution) using an Eppendorf pipette and placed in 9 mL D/E (Dey/Engley) Neutralizing Broth. The inoculum was further diluted to approximately 10^4 condia/mL. Two more reaction tubes (water and OXONE-chlorite) and four Dey/Engley neutralization tubes were prepared to evaluate the efficacy of the tablet solution versus a final inoculum density of 10^3 condia/mL in the reaction tube. Samples were reacted for 15 minutes only. Dilutions of neutralized samples were prepared. Two 100 μL aliquots of all samples in D/E (Dey/Engley) Neutralizing Broth were plated on Malt Extract Agar and incubated at 25 °C until the appearance of colonies. Plates were counted after colonies appeared, roughly 4 days after incubation. Several dilutions of the inoculum spore suspensions were also plated on Malt Extract Agar to obtain an accurate count of viable spores used as inoculum. The samples were incubated at 25° C. and counted after the appearance of colonies, after about 4 days of incubation.
Buffer control data was taken after 15 minutes. CLOROX control data was taken after 5 minutes of treatment.

[5] = 30 sec exposure, 1,008 ppm Oxone, 55.5 ppm Chlorite, 23.2 ppm ClO2
[6] = 30 sec exposure, Example 20 = 1,008 ppm Oxone + 55.5 ppm Chlorite, controls 1,008 ppm Oxone, 55.5 ppm Chlorite, 23.2 ppm ClO2, low level of detection 1.0E+01
[7] = 10 min exposure, 1,008 ppm Oxone, 55.5 ppm Chlorite, 23.2 ppm ClO2
[8] = 10 min exposure, 1,008 ppm Oxone, 55.5 ppm Chlorite, 23.2 ppm ClO2, low level of detection 1.0E+01
[9] = 30 sec exposure, 1,008 ppm Oxone, 55.5 ppm Chlorite, 23.2 ppm ClO2, low level of detection 1.0E+01
[10] = 5 min, 1 × 10^6 conidia/mL inoculum in reaction mix, 2 replicates average, 2 Tabs 3.8 L, OXONE 3.78 g/gallon, chlorite 0.26 g/gallon, ClO2 ~23 ppm, 4.17% CLOROX
[11] = 15 min, 1 × 10^6 conidia/mL inoculum in reaction mix, 2 replicates average, 2 Tabs 3.8 L, OXONE 3.78 g/gallon, chlorite 0.26 g/gallon, ClO2 ~23 ppm

| Compound | Δt (log difference test and control densities) [1, 5] [log] | CFU/mL [1, 6] [CFU/mL] | Δt (log difference test and control densities) [1, 7] [log] | CFU/mL [1, 8] [CFU/mL] | Δt (log difference test and control densities) [2, 5] [log] | CFU/mL [2, 9] [CFU/mL] | Δt (log difference test and control densities) [2, 7] [log] | CFU/mL [2, 8] [CFU/mL] | Surviving bioburden counts (germinating spores - conidia/mL) [4, 10] [conidia/mL] | Surviving bioburden counts (germinating spores - conidia/mL) [4, 11] [conidia/mL] | other results |
| --- | --- | --- | --- | --- | --- | --- | --- | --- | --- | --- | --- |
| sodium chlorite | 0.0 | 1.23E+06 | 0.1 | 1.20E+06 | −0.1 | 1.17E+06 | 0.0 | 1.21E+06 | 4.25E+05 | 6.25E+05 | Δt (log difference test and control densities) [3, 5]: −0.3 log; CFU/mL [3, 9]: 3.09E+06 CFU/mL; Δt (log difference test and control densities) [3, 7]: 0.2 log; CFU/mL [3, 8]: 1.27E+06 CFU/mL; reduction of the fungal bioburden (words) ([4]; listed as chlorite): not able to reduce the bioburden; reduction of the fungal bioburden (words) ([4]; listed as sodium chlorite): ineffective in reducing the fungal bioburden |
| triple salt of potassium monopersulfate, potassium hydrogen sulfate and potassium sulfate [Oxone] | 0.0 | 1.52E+06 | 0.4 | 6.15E+05 | 0.0 | 9.50E+05 | 5.1 | 1.00E+01 | 3.45E+05 | 5.70E+05 | reduction of the fungal bioburden (words) [4]: not able to reduce the bioburden; also recorded: ineffective in reducing the fungal bioburden |
| [O][Cl+][O-] [ClO2, chlorine dioxide] | – | – | – | – | – | – | – | – | – | – | CFU/mL [1]: 1.00E+01 CFU/mL; Δt (log difference test and control densities) [1]: 5.1 log and 5.2 log; CFU/mL [2]: 1.00E+01 CFU/mL; Δt (log difference test and control densities) [2]: 5 log and 5.0 log and 5.1 log; CFU/mL [3]: 1.00E+01 CFU/mL; Δt (log difference test and control densities) [3]: 5.1 log and 5.3 log; Surviving bioburden counts (germinating spores - conidia/mL) [4]: 0.00E+00 conidia/mL; log A. fumigatus spores killed [4]: 5 log |
